Source: patent US11077050B2, “Formulation for parenteral administration” (MERCK SHARP & DOHME CORP., priority 2017, dated 2021)

Test: pKa of doravirine
Format: physicochemical

Cn1c(Cn2ccc(C(F)(F)F)c(Oc3cc(Cl)cc(C#N)c3)c2=O)n[nH]c1=O [Doravirine]
pKa: 9.47
